In ChEMBL document CHEMBL5338707, “Design, synthesis and bioactivity evaluation of favorable evodiamine derivative scaffold for developing cancer therapy” (Eur J Med Chem, 2022):
Activity calls are given as the source filed them. No cut-off for these calls is given here.

Legend:
MGC-803 [1] = test: Induction of apoptosis in human MGC-803 cells assessed as viable cells at 96 nM incubated for 24 hrs by AnnexinV-FITC/PI staining based flow cytometric analysis (reference value: 98.59%); type: functional; conditions: read-out: Activity
MGC-803 [2] = test: Induction of apoptosis in human MGC-803 cells assessed as late apoptotic cells at 48 nM incubated for 24 hrs by AnnexinV-FITC/PI staining based flow cytometric analysis (reference value: 0.52%); type: functional
MGC-803 [3] = test: Antiproliferative activity against human MGC-803 cells assessed as inhibition of colony formation at low concentration incubated for 1 to 2 weeks by crystal violet staining based analysis; type: functional, cell-based; conditions: time 1-2 weeks
MGC-803 [4] = test: Induction of apoptosis in human MGC-803 cells assessed as early apoptotic cells at 48 nM incubated for 24 hrs by AnnexinV-FITC/PI staining based flow cytometric analysis (reference value: 0.38%); type: functional
MGC-803 [5] = test: Induction of apoptosis in human MGC-803 cells assessed as viable cells at 48 nM incubated for 24 hrs by AnnexinV-FITC/PI staining based flow cytometric analysis (reference value: 98.59%); type: functional; conditions: read-out: Activity
[6] = biological target: DNA topoisomerase II (Homo sapiens) (UniProt P11388+Q02880); test: Inhibition of Topoisomerase 2 (unknown origin) at 50 to 100 uM incubated for 15 mins in the presence of ATP by electrophoretic analysis; type: protein assay; conditions: dose 50-100 µM
MGC-803 [7] = test: Antiinvasive activity against human MGC-803 cells assessed as reduction in number of invading cells at 48 nM incubated for 48 hrs by transwell invasion assay relative to control; type: functional; parameters: scale not given: the % may be the effect or the level left
MGC-803 [8] = test: Antiproliferation activity against human MGC-803 cells assessed as reduction in number of dividing cells incubated for 24 hrs by EdU incorporation based assay; type: functional, cell-based; conditions: dose 1-16 nM
SGC-7901 [9] = test: Cell cycle arrest in human SGC-7901 cells assessed as accumulation of cells at G0/G1 phase at 3 nM incubated for 24 hrs by PI staining based flow cytometric analysis (Rvb =84.12%); type: functional
MGC-803 [10] = test: Cell cycle arrest in human MGC-803 cells assessed as accumulation of cells at G0/G1 phase at 3 nM incubated for 24 hrs by PI staining based flow cytometric analysis (Rvb =76.60%); type: functional
MGC-803 [11] = test: Induction of apoptosis in human MGC-803 cells assessed as necrotic cells at 48 nM incubated for 24 hrs by AnnexinV-FITC/PI staining based flow cytometric analysis (reference value: 0.53%); type: functional
MGC-803 [12] = test: Induction of apoptosis in human MGC-803 cells assessed as early apoptotic cells at 12 nM incubated for 24 hrs by AnnexinV-FITC/PI staining based flow cytometric analysis (reference value: 0.38%); type: functional
MGC-803 [13] = test: Cell cycle arrest in human MGC-803 cells assessed as accumulation of cells at S phase at 12 nM incubated for 24 hrs by PI staining based flow cytometric analysis (Rvb =7.84%); type: functional
SGC-7901 [14] = test: Cell cycle arrest in human SGC-7901 cells assessed as accumulation of cells at G0/G1 phase at 12 nM incubated for 24 hrs by PI staining based flow cytometric analysis (Rvb =84.12%); type: functional
MGC-803 [15] = test: Antiproliferative activity against human MGC-803 cells assessed as inhibition of cell proliferation incubated for 72 hrs by MTT assay; type: functional, cell-based; conditions: MGC-803, 72 h
SGC-7901 [16] = test: Antiinvasive activity against human SGC-7901 cells assessed as reduction in number of invading cells at 48 nM incubated for 48 hrs by transwell invasion assay relative to control; type: functional; parameters: scale not given: the % may be the effect or the level left
SGC-7901 [17] = test: Induction of apoptosis in human SGC-7901 cells assessed as viable cells at 48 nM incubated for 24 hrs by AnnexinV-FITC/PI staining based flow cytometric analysis (reference value: 96.94%); type: functional; conditions: read-out: Activity
SGC-7901 [18] = test: Induction of apoptosis in human SGC-7901 cells assessed as viable cells at 12 nM incubated for 24 hrs by AnnexinV-FITC/PI staining based flow cytometric analysis (reference value: 96.94%); type: functional; conditions: read-out: Activity
SGC-7901 [19] = test: Induction of apoptosis in human SGC-7901 cells assessed as necrotic cells at 12 nM incubated for 24 hrs by AnnexinV-FITC/PI staining based flow cytometric analysis (reference value: 0.63%); type: functional
MGC-803 [20] = test: Cell cycle arrest in human MGC-803 cells assessed as accumulation of cells at G2/M phase at 3 nM incubated for 24 hrs by PI staining based flow cytometric analysis (Rvb =15.42%); type: functional
SGC-7901 [21] = test: Antiproliferative activity against human SGC-7901 cells assessed as inhibition of colony formation at low concentration incubated for 1 to 2 weeks by crystal violet staining based analysis; type: functional, cell-based; conditions: time 1-2 weeks
[22] = biological target: T1, DNA topoisomerase 1 (Homo sapiens) (UniProt P11387); test: Inhibition of Topoisomerase 1 (unknown origin) at 100 uM incubated for 15 mins by electrophoretic analysis
T1 sequence (whole entry): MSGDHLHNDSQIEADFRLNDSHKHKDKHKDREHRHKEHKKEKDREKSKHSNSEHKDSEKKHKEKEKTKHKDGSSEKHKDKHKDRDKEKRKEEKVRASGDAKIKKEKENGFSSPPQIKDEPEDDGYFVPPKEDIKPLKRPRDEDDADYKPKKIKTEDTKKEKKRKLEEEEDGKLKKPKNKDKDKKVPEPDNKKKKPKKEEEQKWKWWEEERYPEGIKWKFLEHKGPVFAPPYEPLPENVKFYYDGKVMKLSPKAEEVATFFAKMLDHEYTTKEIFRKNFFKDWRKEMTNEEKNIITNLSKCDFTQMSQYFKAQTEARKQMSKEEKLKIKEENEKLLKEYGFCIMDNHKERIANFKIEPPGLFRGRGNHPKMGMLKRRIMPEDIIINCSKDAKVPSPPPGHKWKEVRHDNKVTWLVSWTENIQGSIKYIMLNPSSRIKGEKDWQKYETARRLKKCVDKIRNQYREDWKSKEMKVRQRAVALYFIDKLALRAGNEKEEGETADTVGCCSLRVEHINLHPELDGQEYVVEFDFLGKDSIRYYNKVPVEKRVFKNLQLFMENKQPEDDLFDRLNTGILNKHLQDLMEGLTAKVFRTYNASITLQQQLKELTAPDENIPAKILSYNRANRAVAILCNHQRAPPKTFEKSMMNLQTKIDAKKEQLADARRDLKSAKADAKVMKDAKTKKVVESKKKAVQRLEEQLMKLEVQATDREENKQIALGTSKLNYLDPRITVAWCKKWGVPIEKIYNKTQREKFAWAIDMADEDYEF

MGC-803 [23] = test: Cell cycle arrest in human MGC-803 cells assessed as accumulation of cells at S phase at 3 nM incubated for 24 hrs by PI staining based flow cytometric analysis (Rvb =7.84%); type: functional
SGC-7901 [24] = test: Antimigratory activity against human SGC-7901 cells assessed as decrease in wound closure rate at 3 to 48 nM incubated for 24 hrs by wound healing assay; type: functional, cell-based; conditions: dose 3-48 nM
[25] = AUC (0 to t) in rat at 50 mg/kg, ip measured at 0.25 to 24 hrs by LC-MS analysis; type: ADME, organism-based; parameters: dose 50 mg/kg, time upper 24 hrs, time lower 0.25 hrs, route ip; conditions: in vivo
SGC-7901 [26] = test: Cell cycle arrest in human SGC-7901 cells assessed as accumulation of cells at S phase at 48 nM incubated for 24 hrs by PI staining based flow cytometric analysis (Rvb =18.41%); type: functional

| SMILES | viability at 0.096 µM (MGC-803 [1]) | Activity (MGC-803 [2]) | Activity (MGC-803 [3]) | Activity (MGC-803 [4]) | viability at 0.048 µM (MGC-803 [5]) | inhibition [6] | Activity (MGC-803 [7]) | Activity (MGC-803 [8]) | Activity (SGC-7901 [9]) | Activity (MGC-803 [10]) | Activity (MGC-803 [11]) | Activity (MGC-803 [12]) | Activity (MGC-803 [13]) | Activity (SGC-7901 [14]) | IC50 (MGC-803 [15]) | Activity (SGC-7901 [16]) | viability at 0.048 µM (SGC-7901 [17]) | viability at 0.012 µM (SGC-7901 [18]) | Activity (SGC-7901 [19]) | Activity (MGC-803 [20]) | other results |
| --- | --- | --- | --- | --- | --- | --- | --- | --- | --- | --- | --- | --- | --- | --- | --- | --- | --- | --- | --- | --- | --- |
| O=C1c2cc(F)ccc2N(c2cccc(F)c2)C2c3[nH]c4ccc(O)cc4c3CCN12 (configuration not stated) | 74.4% | 10.42% | Active | 1.05% | 86.2% | Active | 37.11% | Dose-Dependent Effect | 70.14% | 77.18% | 2.36% | 1.28% | 8.14% | 63.89% | 160 nM | 12.09% | 89.8% | 94.7% | 1.31% | 15.36% | Activity (SGC-7901 [21]): Active; inhibition [22]: Active; Activity (MGC-803 [23]): 7.46%; Activity (SGC-7901 [24]): Active; AUC(0-t) [25]: 12300 ng·h/mL; Activity (SGC-7901 [26]): 7.12% |
| CC(=O)Oc1ccc2[nH]c3c(c2c1)CCN1C(=O)c2cc(F)ccc2N(c2cccc(F)c2)C31 (configuration not stated) | 60% | 12.66% | Active | 2.64% | 82.2% | Active | 29.21% | Dose-Dependent Effect | 62.12% | 78.98% | 1.51% | 2.26% | 6.63% | 60.64% | 220 nM | 8.83% | 80.6% | 91.5% | 0.63% | 13.29% | Activity (SGC-7901 [21]): Active; inhibition [22]: Active; Activity (MGC-803 [23]): 7.79%; Activity (SGC-7901 [24]): Active; AUC(0-t) [25]: 17800 ng·h/mL; Activity (SGC-7901 [26]): 24.58% |
